# In publication PMC11311998, “AR71, Histamine H3 Receptor Ligand—In Vitro and In Vivo Evaluation (Anti-Inflammatory Activity, Metabolic Stability, Toxicity, and Analgesic Action)” (International Journal of Molecular Sciences, 2024):
# Legend:
# [1] = test system: CCI-exposed mice; experiment: CCI neuropathic pain model, all behavioural tests and observation; format: in vivo, mouse
# Procedure: The effects of a single intraperitoneal (i.p.) injection of AR71 at doses of 5, 10, and 20 mg/kg on mechanical (von Frey test) and thermal (cold plate and tail flick tests) stimulus were evaluated on day 14 following sciatic nerve injury (Figure 15). There were seven to eight animals per group. All these tests were performed in three time series after the administration of the compound. In the case of the von Frey test—after 30, 90, and 180 min; the cold plate test—after 35, 95, and 185 min; and the tail flick test—after 40, 100, and 190 min.
# The mice were randomly divided into four experimental groups. One group received a vehicle treatment (10% DMSO/10%(2-Hydroxypropyl)-β-cyclodextrin/water for injection, i.p.), while the other three groups were administered with AR71 at doses of 5, 10, or 20 mg/kg of body weight (b.w.), i.p. Baseline measurements for all tests were conducted before the compounds were injected, and the results are presented as percentages of the maximal possible effect (% MPE). […] All data from behavioural tests were analysed using a one-way ANOVA with Bonferroni’s multiple comparison post hoc test.
# Assessment of the analgesic activity of AR71 was performed using a mouse experimental model of chronic constriction injury of the sciatic nerve, by three tests including the von Frey test, the cold plate test, and the tail flick test. […]
# [2] = test system: BV-2 cells; set-up: method as in PMID 36370200; conditions: LPS-treated BV-2 cells; cited from earlier work
# [3] = test system: SH-SY5Y cells; experiment: viability of neuroblastoma cells (MTS assay); format: cell-based, human
# Procedure: The toxicity of AR71 in neuroblastoma cells was evaluated with the 3-(4,5-dimethylthiazol-2-yl)-5-(3-carboxymethoxyphenyl)-2-(4-sulfophenyl)-2H-tetrazolium (MTS) assay. The cells were cultured with AR71 at various concentrations ranging from nanomolar to micromolar for 24 h.
# SH-SY5Y cells (the human neuroblastoma cell line) were purchased from the American Type Culture Collection (ATCC® no. CRL-2266™; Manassas, VA, USA). The cells were grown in a complete culture medium containing DMEM/F-12 medium (Gibco no. A41920-01) supplemented with 10% foetal bovine serum (FBS, Gibco no. 10500-064), non-essential amino acids (Biowest, Nuaillé, France), and antibiotics (Life Technologies) in a humidified incubator containing 95% air and 5% CO2 at 37 °C. Experiments were performed with SH-SY5Y cells from passage (15 up to 25—W.W.).
# Neurotoxicity evaluation was performed with the SH-SY5Y cell line. The cells were seeded (5 × 10^3 cells/100 μL/well) in transparent 96-well plates (Corning Falcon, no. 353072, Merck KGaA, Darmstadt, Germany), in a complete culture medium and cultured overnight. The next day, the medium was removed and replaced with a fresh one containing 0.1% DMSO (vehicle control, Veh) or increasing concentration of the AR71 compound (the concentrations studied covered the range of nanomolar and micromolar concentrations). Treatment with the compounds was performed for 24 h. At the end of the incubation time, the cells were examined under an inverted microscope to rule out possible precipitation of the compound in the culture medium. Cell viability was examined using an MTS-based CellTiter96® AQueous One Solution Cell Proliferation Assay (Promega, Madison, WI, USA) following the manufacturer’s protocol. Briefly, 20 μL of MTS solution was pipetted directly into each well containing 100 μL of culture medium with or without cells (blank) and incubated at 37 °C for 1 h. The absorbance was measured at 490 nm using the Tecan Spark multimode plate reader (Tecan, Männedorf, Switzerland). A reference wavelength of 630 nm was used to subtract the background. The viability of individual samples was calculated relative to the vehicle-treated cells (0.1% DMSO). The results are presented as means with SEMs of two independent experiments, each comprising four replicates per treatment group. Data from the MTS assay were used to determine the IC50 value. It was calculated by fitting a nonlinear regression to a sigmoidal dose–response curve in GraphPad Prism version 8.0.1 (GraphPad Software, Inc., San Diego, CA, USA).
compound,measurement,setting,value
"COc1cc(/C=C/C(=O)c2ccc(OCCCN3CCCCC3)cc2)cc(OC)c1OC [AR71, (E)-3-(3,4,5-trimethoxyphenyl)-1-(4-(3-(piperidin-1-yl)propoxy)phenyl)prop-2-en-1-one]","sedative, locomotor or gastrointestinal effects","[1]; 5, 10, 20 mg/kg i.p.","no sedative, locomotor, or gastrointestinal effects"
same,dose with the highest analgesic effects,"[1]; single i.p. injection, doses 5, 10, 20 mg/kg, day 14 after CCI",20 mg/kg
same,"effect on proinflammatory cytokines (IL-1β, IL-6, TNF-α), mRNA and protein level",[2],reduced the level of proinflammatory cytokines
same,loss in neuroblastoma viability vs control cells,"[3]; 50 μM, 24 h",73%
same,concentration from which cell metabolic activity decreased significantly (p < 0.001),[3]; 24 h,≥ 4.17 µM
same,IC50,"[3]; Homo sapiens, SH-SY5Y, 24 h incubation",24.9 µM
same,effect on cell viability,"[3]; concentrations up to 0.72 μM, 24 h",did not affect cell viability
